Experimental findings from EPA's ToxRefDB 2 are described below.

The subject of data set [1] is rat. The conditions noted are these: Multigenerational reproductive toxicity study, sprague dawley, Oral, Feed, dose end: 2 generation.
Data set [2] concerns rat. The conditions noted are these: Prenatal developmental toxicity study, sprague dawley, Oral, Gavage/Intubation, dose end: 15 GD.
For data set [3], the system named is rat. The conditions noted are these: Prenatal developmental toxicity study, Oral, Gavage/Intubation, dose end: 18 GD.
Data set [4] relates to rat. The conditions noted are these: Fertility (Segment I), Oral, Gavage/Intubation, dose end: 1 generation.
In data set [5] the test system is rat. The conditions noted are these: Fertility (Segment I), Oral, Gavage/Intubation, dose end: 1 generation. This is another data set of the same source.
Data set [6] relates to rat. Conditions: Multigenerational reproductive toxicity study, sprague dawley, Oral, Feed, dose end: 2 generation. This is another data set of the same source.
The next data set relates to rabbit. Conditions: Prenatal developmental toxicity study, himalayan, Inhalation, Whole-Body, dose end: 29 GD.
Data set [7] deals with rat. The conditions noted are these: Prenatal developmental toxicity study, wistar, Inhalation, Whole-Body, dose end: 15 GD.
Data set [8] deals with rat. Conditions: Subchronic oral toxicity in rodents, sprague dawley, Feed, dose end: 13 week.
Data set [9] deals with rat. Conditions: Prenatal developmental toxicity study, sprague dawley, Oral, Gavage/Intubation, dose end: 16 GD.
Data set [10] deals with rat. The conditions noted are these: Multigenerational reproductive toxicity study, other, Oral, Feed, dose end: 2 generation.
Where [11] appears, read: group: offspring, systemic / in life observation / body weight / offspring (pup) weight.
[12] abbreviates: group: parental, systemic / in life observation / body weight / body weight + systemic / in life observation / body weight / body weight gain.
[13] abbreviates: group: developmental, developmental / developmental malformation / bone / delayed ossification.
Where [14] appears, read: group: developmental, developmental / developmental malformation / bone / delayed ossification + developmental / developmental malformation / ureter / distended.
The mark [15] stands for this setting: group: maternal, systemic / in life observation / body weight / body weight gain + systemic / in life observation / food consumption / food consumption.
The mark [16] stands for this setting: group: maternal, systemic / in life observation / body weight / body weight gain + systemic / in life observation / food consumption / food consumption + ….
Setting [17] is: group: developmental, developmental / developmental malformation / eye / microphthalmia + developmental / developmental malformation / general / situs inversus + ….
The mark [18] stands for this setting: group: maternal, reproductive / reproductive performance / postimplantation loss / postimplantation loss + reproductive / reproductive performance / ….
The mark [19] stands for this setting: group: maternal, reproductive / reproductive performance / estrous cycle / abnormal + reproductive / reproductive performance / estrous cycle / corpora lutea….
[20] abbreviates: group: parental, systemic / in life observation / clinical signs / alopecia.
Where [21] appears, read: group: parental, systemic / in life observation / clinical signs / alopecia + systemic / in life observation / body weight / body weight + systemic / in life….
[22] abbreviates: group: maternal, reproductive / reproductive performance / fertility / fertility + reproductive / reproductive performance / pregnancy index / pregnancy ….
[23] abbreviates: group: parental, systemic / in life observation / body weight / body weight + systemic / in life observation / clinical signs / body surface staining + ….
Setting [24] is: group: parental, systemic / in life observation / clinical signs / convulsions.
Where [25] appears, read: group: parental, systemic / pathology microscopic / stomach / proliferation.
The mark [26] stands for this setting: group: developmental, developmental / developmental malformation / heart / [other] + developmental / developmental malformation / limb / [other].
[27] abbreviates: group: maternal, systemic / in life observation / mortality / mortality.
Where [28] appears, read: group: developmental, developmental / developmental malformation / bone / incomplete ossification + developmental / developmental malformation / bone / ….
Where [29] appears, read: group: developmental, developmental / developmental malformation / bone / malpositioned.
The mark [30] stands for this setting: group: maternal, reproductive / reproductive performance / estrous cycle / length.
[31] abbreviates: group: systemic, systemic / clinical chemistry / calcium / calcium + systemic / clinical chemistry / globulins / globulins + systemic / clinical chemistry / ….
The mark [32] stands for this setting: group: developmental, developmental / developmental malformation / bone / incomplete ossification + developmental / developmental malformation / bone / unossified….
[33] abbreviates: group: maternal, systemic / in life observation / body weight / body weight gain.
[34] abbreviates: group: maternal, systemic / in life observation / body weight / body weight gain + reproductive / reproductive performance / postimplantation loss / ….
Setting [35] is: group: reproductive, reproductive / reproductive performance / fertility / fertility + reproductive / reproductive performance / precoital interval / precoital ….

What is called LOAEL is the lowest tested level that showed an adverse finding. What is called NOAEL is the highest dose or exposure tested at which no adverse effect was seen. In the data set with rat [1] (setting [11]), `CC1COc2ccccc2N1C(=O)C(Cl)Cl` (configuration not stated) [Benoxacor] returned an LEL of 45.5 mg/kg/day, an LOAEL of 45.5 mg/kg/day, an NEL of 4.2 mg/kg/day and an NOAEL of 4.2 mg/kg/day. Further, in the data set with rat [1] (setting [12]), the LEL was 34.8 mg/kg/day, the LOAEL stood at 34.8 mg/kg/day, the NEL was determined as 3.55 mg/kg/day and the NOAEL was 3.55 mg/kg/day.

Turning to `COC[C@H](C)N(C(=O)CCl)c1c(C)csc1C` [Dimethenamid-P], the LEL is 150 mg/kg/day with rat [2] (setting [13]) and 25 mg/kg/day with rat [2] (setting [16]). For the same compound, the lowest-observed-adverse-effect level (LOAEL) in the data set with rat [2] (setting [13]) amounted to 150 mg/kg/day; with rat [2] (setting [15]) it was 25 mg/kg/day. Also, the NEL in the data set with rat [2] (setting [14]) is 25 mg/kg/day; with rat [2] (setting [16]), under 25 mg/kg/day. For the same compound, the NOAEL was 25 mg/kg/day in the data set on rat [2] (setting [14]) and under 25 mg/kg/day in the data set with rat [2] (setting [15]).

Turning to `O=C(N[C@H]1CN2CCC1CC2)c1cc2ccoc2cn1`, the LOAEL in the data set with rat [3] (setting [17]) is over 150 mg/kg/day; with rat [3] (setting [18]), over 150 mg/kg/day; in the data set with rat [4] (setting [19]), over 150 mg/kg/day; in the data set with rat [4] (setting [21]), over 150 mg/kg/day; in the data set on rat [5] (setting [22]) it was over 175 mg/kg/day; in the data set with rat [5] (setting [23]), over 175 mg/kg/day. For the same compound, the NOAEL is at least 150 mg/kg/day in the data set on rat [3] (setting [17]); at least 150 mg/kg/day in the data set with rat [3] (setting [18]); at least 150 mg/kg/day in the data set with rat [4] (setting [19]); at least 150 mg/kg/day with rat [4] (setting [21]); at least 175 mg/kg/day in the data set with rat [5] (setting [22]); at least 175 mg/kg/day in the data set with rat [5] (setting [23]). Moreover, the LEL came to 20 mg/kg/day with rat [3] (group: developmental, developmental / developmental malformation / great vessels / [other]); 20 mg/kg/day with rat [3] (group: maternal, systemic / in life observation / clinical signs / alopecia); 150 mg/kg/day with rat [4] (setting [19]); 5 mg/kg/day in the data set with rat [4] (setting [20]); 150 mg/kg/day in the data set on rat [5] (setting [22]); 7 mg/kg/day with rat [5] (setting [24]). Also, the NEL in the data set with rat [3] (setting [18]) was 5 mg/kg/day; in the data set with rat [4] (setting [19]) it was 50 mg/kg/day; in the data set on rat [4] (setting [20]) it was under 5 mg/kg/day; with rat [5] (setting [22]) it was 75 mg/kg/day; in the data set on rat [5] (setting [24]), under 7 mg/kg/day.

On to `O=C([O-])C1C2CCC(O2)C1C(=O)[O-].[Na+].[Na+]` (configuration not stated) [Disodium endothal], for which, in the data set on rat [6] (setting [11]), the LEL was found to be 10.9 mg/kg/day, the LOAEL is 77.1 mg/kg/day, the NEL was 2.1 mg/kg/day and the NOAEL is 10.9 mg/kg/day. In addition, in the data set with rat [6] (setting [25]), the LEL came to 2.1 mg/kg/day, the LOAEL came out at 2.1 mg/kg/day, the NEL was under 2.1 mg/kg/day and the NOAEL is under 2.1 mg/kg/day.

As to `CC(C)CCO` [Isopentyl alcohol], the LEL is 0.5 ppm with rabbit (setting [26]), 2.5 ppm with rabbit (setting [27]), 0.5 ppm in the data set with rat [7] (setting [29]) and 0.5 ppm in the data set on rat [7] (setting [27]). The LOAEL with rabbit (setting [26]) was over 10 ppm; in the data set on rabbit (setting [27]), 2.5 ppm; with rat [7] (setting [28]) it was over 10 ppm; with rat [7] (setting [27]), over 10 ppm. Further, the NEL with rabbit (setting [26]) is under 0.5 ppm; with rabbit (setting [27]), 0.5 ppm; in the data set on rat [7] (setting [29]), under 0.5 ppm; in the data set with rat [7] (setting [27]) it was under 0.5 ppm. The NOAEL is at least 10 ppm in the data set with rabbit (setting [26]), 0.5 ppm with rabbit (setting [27]), at least 10 ppm in the data set on rat [7] (setting [28]) and at least 10 ppm in the data set with rat [7] (setting [27]).

As to `Nc1nc(N)nc(Cl)n1` [2-Chloro-4,6-diamino-1,3,5-triazine], the LEL with rat [8] (setting [30]) came out at 7.6 mg/kg/day; with rat [8] (group: systemic, systemic / clinical chemistry / protein / protein), 16.7 mg/kg/day; in the data set with rat [9] (setting [32]), 25 mg/kg/day; in the data set on rat [9] (setting [33]), 75 mg/kg/day. The LOAEL in the data set with rat [8] (setting [30]) was 7.6 mg/kg/day; in the data set on rat [8] (setting [31]), over 34.1 mg/kg/day; with rat [9] (setting [32]) it was 25 mg/kg/day; in the data set on rat [9] (setting [33]) it was 75 mg/kg/day. Also, the NEL worked out at 0.7 mg/kg/day in the data set with rat [8] (setting [30]), 6.7 mg/kg/day in the data set on rat [8] (setting [31]), 2.5 mg/kg/day in the data set with rat [9] (setting [32]) and 25 mg/kg/day in the data set with rat [9] (setting [34]). For the same compound, the NOAEL with rat [8] (setting [30]) was 0.7 mg/kg/day; in the data set on rat [8] (setting [31]), at least 34.1 mg/kg/day; in the data set with rat [9] (setting [32]), 2.5 mg/kg/day; in the data set on rat [9] (setting [34]), 25 mg/kg/day.

For `C[C@H]1O[C@H](OC2[C@@H](O)[C@@H](O)C(O)[C@H](O)[C@H]2O)[C@@H](N)C[C@@H]1N=C(N)C(=O)O` (some centres not stated) [Kasugamycin], in the data set with rat [10] (setting [12]), the LEL was determined as 70.3 mg/kg/day, the LOAEL stood at 70.3 mg/kg/day, the NEL was determined as 13.7 mg/kg/day and the no observed adverse effect level (NOAEL) is 13.7 mg/kg/day. Besides, in the data set with rat [10] (setting [35]), the LEL amounted to 425 mg/kg/day, the lowest-observed-adverse-effect level (LOAEL) turned out to be 425 mg/kg/day, the NEL worked out at 70.3 mg/kg/day and the NOAEL stood at 70.3 mg/kg/day.
